Several values for one entry are separate records, joined by “and”; a condition that tells them apart may be missing. Equal values may be shown once.
Tests used:
[1] = Meal tolerance test (MTT) in metabolically impaired rhesus monkeys treated with GNTI; assay type: in vivo, rhesus monkey; details: for BG / GIP / GLP-1 / Glucagon / Insulin / Glucagon Change T0-T60/120: individual animals
Procedure: To test for the effect of physiological first phase insulin secretion, a meal tolerance test (MTT) was developed. The meal tolerance test involved oral administration of meal based nutrients within suitable ratios of carbohydrates, proteins and fats. The ratios used for the given example were 70% carbohydrates, 8% protein and 22% fats. […] Following MTV administration, the same readings were taken at time points of 3-9 minutes to test for first-phase insulin secretion and the subsequent reduction in blood glucose. It was determined that a first-phase insulin secretion dependent slight increase in insulin concentration appeared, typically, at 5 minutes post MTT administration, followed by a corresponding blood glucose decrease at 7 minutes. A slight decrease in glucagon levels was also coupled with first-phase insulin secretion at 5 minutes. The MTT serves as a corollary to the intravenous glucose tolerance test (MITT) and better measures first-phase insulin secretion because oral administration of nutrients has a more direct effect on the incretin effect.
Table 7 illustrates administration of the MTT to two rhesus monkeys categorized as metabolically “normal’ based on “normal” fasting blood glucose values. The monkeys were given a diet of 55-60% carbohydrates, 15-25% protein, and 15-30% fat. Readings of blood glucose, insulin, and glucagon were taken at time points 0, 5, 7, 60 and 120 minutes. Additionally, at the same time points, the incretin hormones, GIP and GLP-1 were measured to more directly measure the incretin effect. […] Comparison of blood glucose levels at time points 0 and 120 minutes illustrates that normal metabolic functioning has returned the subject's blood glucose levels to normal within 120 minutes of MTT administration.
Table 8 illustrates the effect of GNTI on physiologic control of glucagon Baseline readings were taken on Day 1 of blood glucose, insulin, glucagon, GIP, and GLP-1 in metabolically impaired rhesus monkeys as determined through administration of the MTT. Cumulative in-situ doses of 45 ng/kg and 95 ng/kg were active on day 5 and day 7, respectively, during administration of the MTT. Readings of blood glucose, insulin, glucagon, GIP, and GLP-1 were taken at time points 0, 60 minutes and 120 minutes.

[2] = Daily blood glucose profile of a subject with early stage Type 2 diabetes during GNTI administration; assay type: in vivo; details: human; for Average blood glucose by day of week / Readings In Target, 65-155 (as %) / Readings Lows, 51-64 (as %): GNTI once weekly
Procedure: The daily blood glucose profile of a subject with early stage, [non-insulin dependent] Type 2 diabetes was monitored during extended periods of administration of guanidinylated naltrindole (GNTI).
A weekly dose of about 70 ng/kg was administered.
FIGS. 1-3 illustrate the blood glucose readings over an extended period of time, a modal week and a modal day. The target blood glucose range was 65-155 mg/dL. Table 3 illustrates that 98% of the readings were within the target range. The other 2% of the readings fell below the target range and fell between 51-64 mg/dL.
FIGS. 1-3 illustrate the subject's blood glucose readings over an extended period of time, a modal week, and a modal day. Accordingly, 227 blood glucose readings were taken, averaging 92 mg/dL over a 15 day period. 98% of all readings were between 65 and 127 mg/dL, and 2% between […], representing a very narrow overall spread.

[3] = Weight (BMI) of the subject with early stage Type 2 diabetes during GNTI administration; assay type: in vivo; details: human, extended periods of GNTI administration
Source text: The weight of the subject with early stage Type 2 diabetes mellitus was also monitored during extended periods of administration on GNTI, decreasing from, a baseline body mass index (BMI) of 25 to an average BMI of 22.8, corresponding to a reduction by about 9%.

[4] = Blood glucose, HDL-C and triglycerides in rhesus monkeys after an oral dose of GNTI; assay type: in vivo, rhesus monkey
Procedure: A cohort of rhesus monkeys having progressively increasing degrees of impaired glucose tolerance were monitored following an oral dose of GNTI of 86 ng/kg of body weight. Baseline readings of blood glucose (BC), high density lipoprotein C (HDL-C) and triglycerides (TO) were taken on Day 0.
The effect of GNTI was most readily seen in the change of blood glucose and blood lipid levels. […] The other 4 subjects of the cohort, i.e., r98060, r96027, r00072, r01078, had baseline blood glucose levels ranging from 71-81 and were considered to have impaired glucose tolerance.

[5] = Day 5, GNTI 45 ng/kg cumulative, MTT TP 0 min
[6] = Day 5, GNTI 45 ng/kg cumulative, MTT TP 60 min
[7] = Day 5, GNTI 45 ng/kg cumulative, MTT TP 120 min
[8] = Day 7, GNTI 95 ng/kg cumulative, MTT TP 0 min
[9] = Day 7, GNTI 95 ng/kg cumulative, MTT TP 60 min
[10] = Day 7, GNTI 95 ng/kg cumulative, MTT TP 120 min
[11] = GNTI about 70 ng/kg weekly, Early AM 00:00-04:59
[12] = GNTI about 70 ng/kg weekly, Evening 15:00-18:59
[13] = GNTI about 70 ng/kg weekly, Midday 11:00-14:59
[14] = GNTI about 70 ng/kg weekly, Morning 05:00-10:59
[15] = GNTI about 70 ng/kg weekly, Night 19:00-23:59
[16] = GNTI about 70 ng/kg weekly, all readings, 15 day period
[17] = GNTI about 70 ng/kg weekly, of 227 readings
[18] = GNTI about 70 ng/kg weekly, overall
[19] = early stage Type 2 diabetes, GNTI about 70 ng/kg weekly, 15 days
[20] = four dyslipidemic rhesus monkeys, day 8, oral GNTI 86 ng/kg
[21] = rhesus monkeys, individual animals, Day 8 after oral GNTI 86 ng/kg on Day 0

Compound: NC(N)=Nc1ccc2[nH]c3c(c2c1)C[C@@]1(O)[C@H]2Cc4ccc(O)c5c4[C@@]1(CCN2CC1CC1)[C@H]3O5 [GNTI, guanidinylated naltrindole]
- Effect on glucagon after MTT ([1]; both dosages (45 and 95 ng/kg), time points 60 and 120, all subjects tested): marked decrease in glucagon
- BG [1, 5]: 83 mg/dL and 69 mg/dL and 51 mg/dL
- GIP [1, 5]: 50 pg/mL and 8 pg/mL
- GLP-1 [1, 5]: 34 pmol/L and 19 pmol/L and 11 pmol/L
- Glucagon [1, 5]: 411 pg/mL (2×) and 302 pg/mL
- Insulin [1, 5]: 57 microU/mL and 23 microU/mL and 14 microU/mL
- BG [1, 6]: 98 mg/dL and 70 mg/dL and 64 mg/dL
- GIP [1, 6]: 640 pg/mL and 320 pg/mL and 650 pg/mL
- GLP-1 [1, 6]: 83 pmol/L and 49 pmol/L and 31 pmol/L
- Glucagon [1, 6]: 366 pg/mL and 172 pg/mL and 267 pg/mL
- Insulin [1, 6]: 396 microU/mL and 145 microU/mL and 122 microU/mL
- BG [1, 7]: 61 mg/dL and 78 mg/dL and 76 mg/dL
- GIP [1, 7]: 760 pg/mL and 775 pg/mL
- GLP-1 [1, 7]: 31 pmol/L and 82 pmol/L and 79 pmol/L
- Glucagon [1, 7]: 261 pg/mL and 249 pg/mL and 122 pg/mL
- Insulin [1, 7]: 200 microU/mL and 249 microU/mL and 137 microU/mL
- Glucagon Change T0-T60/120 ([1]; Day 5, GNTI 45 ng/kg cumulative, T0 to T60 min): −11% and −43% and −35%
- Glucagon Change T0-T60/120 ([1]; Day 5, GNTI 45 ng/kg cumulative, T0 to T120 min): −36% and −39% and −60%
- BG [1, 8]: 56 mg/dL and 82 mg/dL and 73 mg/dL
- GIP [1, 8]: 30 pg/mL and 25 pg/mL and 20 pg/mL
- GLP-1 [1, 8]: 28 pmol/L and 60 pmol/L and 67 pmol/L
- Glucagon [1, 8]: 472 pg/mL and 487 pg/mL and 293 pg/mL
- Insulin [1, 8]: 14 microU/mL and 71 microU/mL and 30 microU/mL
- BG [1, 9]: 70 mg/dL and 106 mg/dL and 69 mg/dL
- GIP [1, 9]: 675 pg/mL (2×) and 75 pg/mL
- GLP-1 [1, 9]: 35 pmol/L and 60 pmol/L
- Glucagon [1, 9]: 240 pg/mL and 351 pg/mL and 107 pg/mL
- Insulin [1, 9]: 100 microU/mL and 401 microU/mL and 54 microU/mL
- BG [1, 10]: 63 mg/dL and 95 mg/dL and 86 mg/dL
- GIP [1, 10]: 675 pg/mL and 775 pg/mL and 240 pg/mL
- GLP-1 [1, 10]: 223 pmol/L and 77 pmol/L
- Glucagon [1, 10]: 271 pg/mL and 267 pg/mL and 108 pg/mL
- Insulin [1, 10]: 54 microU/mL and 307 microU/mL and 71 microU/mL
- Glucagon Change T0-T60/120 ([1]; Day 7, GNTI 95 ng/kg cumulative, T0 to T60 min): −49% and −28% and −63%
- Glucagon Change T0-T60/120 ([1]; Day 7, GNTI 95 ng/kg cumulative, T0 to T120 min): −43% and −45% and −63%
- Average blood glucose [2, 11]: 79 mg/dL
- Readings In Target, 65-155 mg/dL [2, 11]: 100%
- Average blood glucose [2, 12]: 91 mg/dL
- Readings In Target, 65-155 mg/dL [2, 12]: 100%
- Average blood glucose [2, 13]: 92 mg/dL
- Readings In Target, 65-155 mg/dL [2, 13]: 98%
- Readings Lows, 51-64 mg/dL [2, 13]: 2%
- Average blood glucose [2, 14]: 90 mg/dL
- Readings In Target, 65-155 mg/dL [2, 14]: 97%
- Readings Lows, 51-64 mg/dL [2, 14]: 3%
- Average blood glucose [2, 15]: 95 mg/dL
- Readings In Target, 65-155 mg/dL [2, 15]: 97%
- Readings Lows, 51-64 mg/dL [2, 15]: 3%
- Readings between 61 and 65 mg/dL [2, 16]: 2%
- Readings between 65 and 127 mg/dL [2, 16]: 98%
- Number of readings High (156-300 mg/dL) [2, 17]: 0
- Number of readings Low (51-64 mg/dL) [2, 17]: 5
- Number of readings Target (65-155 mg/dL) [2, 17]: 222
- Number of readings Very High (301-601 mg/dL) [2, 17]: 0
- Number of readings Very Low (0-50 mg/dL) [2, 17]: 0
- Percent of readings High (156-300 mg/dL) [2, 18]: 0%
- Percent of readings Very High (301-601 mg/dL) [2, 18]: 0%
- Percent of readings Very Low (0-50 mg/dL) [2, 18]: 0%
- Readings In Target, 65-155 mg/dL [2, 18]: 98%
- Readings Lows, 51-64 mg/dL [2, 18]: 2%
- Readings in the hypoglycemic range ([2]; GNTI about 70 ng/kg weekly, readings below target range): none of these readings were in the hypoglycemic range
- Average blood glucose by day of week ([2]; Fri): 96 mg/dL
- Readings In Target, 65-155 (as %) ([2]; Fri): 100%
- Average blood glucose by day of week ([2]; Mon): 92 mg/dL
- Readings In Target, 65-155 (as %) ([2]; Mon): 100%
- Average blood glucose by day of week ([2]; Sat): 92 mg/dL
- Readings In Target, 65-155 (as %) ([2]; Sat): 100%
- Average blood glucose by day of week ([2]; Sun): 92 mg/dL
- Readings In Target, 65-155 (as %) ([2]; Sun): 100%
- Average blood glucose by day of week ([2]; Thur): 94 mg/dL
- Readings In Target, 65-155 (as %) ([2]; Thur): 100%
- Average blood glucose by day of week ([2]; Tue): 87 mg/dL
- Readings In Target, 65-155 (as %) ([2]; Tue): 87%
- Readings Lows, 51-64 (as %) ([2]; Tue): 13%
- Average blood glucose by day of week ([2]; Wed): 88 mg/dL
- Readings In Target, 65-155 (as %) ([2]; Wed): 93%
- Readings Lows, 51-64 (as %) ([2]; Wed): 7%
- Average blood glucose by day of week ([2]; Weekdays): 92 mg/dL
- Readings In Target, 65-155 (as %) ([2]; Weekdays): 97%
- Readings Lows, 51-64 (as %) ([2]; Weekdays): 3%
- Average blood glucose by day of week ([2]; Weekends): 92 mg/dL
- Readings In Target, 65-155 (as %) ([2]; Weekends): 100%
- Highest Blood Glucose [2, 19]: 127 mg/dL
- Lowest Blood Glucose [2, 19]: 61 mg/dL
- Average blood glucose ([2]; early stage Type 2 diabetes, GNTI about 70 ng/kg weekly, overall, 15 days, 227 readings): 92 mg/dL
- Maintenance of blood glucose levels within the target range ([2]; once weekly administration, target 65-155 mg/dL): aided in maintaining blood glucose levels within the target range
- Reduction of BMI from baseline [3]: about 9%
- Average body mass index (BMI) ([3]; baseline BMI 25): 22.8
- Decrease in blood glucose, average ([4]; 4 rhesus monkeys having impaired glucose tolerance, day 8, oral GNTI 86 ng/kg): 26%
- HDL-C increase, average [4, 20]: 23%
- HDL-C increase, range [4, 20]: 10-31%
- Decrease in blood glucose levels ([4]; glucose normal rhesus monkey r89163, day 8, oral GNTI 86 ng/kg): 3%
- Increase in HDL-C lipid levels ([4]; lipid normal rhesus monkey r98068, day 8, oral GNTI 86 ng/kg): 5%
- BG [4, 21]: 51 mg/dL and 53 mg/dL and 67 mg/dL and 56 mg/dL and 63 mg/dL
- HDL-C [4, 21]: 85 mg/dL and 46 mg/dL and 61 mg/dL and 63 mg/dL and 84 mg/dL
- TG [4, 21]: <45 mg/dL (3×) and 89 mg/dL and 60 mg/dL
- BG Change ([4]; rhesus monkeys, individual animals, Day 8 vs Baseline, oral GNTI 86 ng/kg): (−3%)

— patent US20140329844A1, “METHOD OF RESTORING THE INCRETIN EFFECT” (NEURENDO PHARMA, LLC, priority 2006, published 2014)
